Test results taken from US10669283B2, “Compound and pharmacologically acceptable salt thereof” (MEIJI SEIKA PHARMA CO., LTD., priority 2016, dated 2020).

Experiments:
[1] = Hepatic metabolic stability (rat liver microsome method); format: in vitro ADME; settings: rat liver microsomes 0.5 mg/mL, test substance 1 μM, NADPH 1 mM, 37° C., 30 minutes
In short: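 Test compound (1 μM) preincubated with rat liver microsomes (0.5 mg/mL) in 100 mM potassium phosphate pH 7.4 at 37° C; NADPH (1 mM) started reaction, acetonitrile stopped it at 0 and 30 min. LC-MS quantitation; % remaining = 30-min/0-min ×100, graded A ≥75%, B 60–<75%, C 45–<60%, D <45%.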

PDE4 = PDE4 inhibition, scintillation proximity assay (SPA); format: biochemical; settings: scintillation proximity assay; class symbols; read-out: PDE4 Inhibitory Activity
In short: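 Scintillation proximity read-out: [2,8-3H]-cAMP hydrolysis by PDE4 ran 120 min at room temperature in Tris-HCl pH 7.4 buffer with 8.3 mM MgCl2, 1.7 mM EGTA and 3 mg/mL BSA. Bead-bound product (YSi-SPA with ZnSO4, 15 min) counted; blank lacks enzyme, control has DMSO only.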

| Structure (SMILES) | Residual ratio (% remaining for 30-minute reaction) [1] | IC50 (PDE4) [nM] |
| --- | --- | --- |
| FC(F)(F)c1ccc(Oc2ccc(-c3nccs3)c3oc(N4CC5CC(C4)N5)nc23)nc1 [Example 336, 2-(3,6-diazabicyclo [3.1.1]heptan-3-yl)-7-(thiazol-2-yl)-4-((5-(trifluoromethyl)pyridin-2-yl)oxy)benzo[d]oxazole] | B (60% or more and less than 75%) | < 100 |
| c1ccc(Oc2ccc(-c3nccs3)c3oc(N4CC5CC(C4)N5)nc23)nc1 [Example 337, 2-(3,6-diazabicyclo [3.1.1]heptan-3-yl)-4-(pyridin-2-yloxy)-7-(thiazol-2-yl)benzo[d] oxazole] | B (60% or more and less than 75%) | < 100 |
| c1cnc(Oc2ccc(-c3nccs3)c3oc(N4CC5CC(C4)N5)nc23)nc1 [Example 338, 2-(3,6-diazabicyclo [3.1.1]heptan-3-yl)-4-(pyrimidin-2-yloxy)-7-(thiazol-2-yl)benzo[d]oxazole] | A (a % remaining rate of 75% or more) | < 100 |
| c1cnc(Oc2ccc(-c3nccs3)c3oc(N4CC5CC(C4)N5)nc23)cn1 [Example 339, 2-(3,6-diazabicyclo[3.1.1]heptan-3-yl)-4-(pyrazin-2-yloxy)-7-(thiazol-2-yl)benzo [d]oxazole] | B (60% or more and less than 75%) | < 100 |
| Cc1cc(C(F)(F)F)c(Oc2ccc(-c3nccs3)c3oc(N4CC5CC(C4)N5)nc23)nn1 [Example 340, 2-(3,6-diazabicyclo[3.1.1]heptan-3-yl)-4-((6-methyl-4-(trifluoro-methyl)pyridazin-3-yl)oxy)-7-(thiazol-2-yl)benzo[d] oxazole] | A (a % remaining rate of 75% or more) | < 100 |
| OCc1ccc(Oc2ccc(-c3nccs3)c3oc(N4CC5CC(C4)N5)nc23)nc1 [Example 341, (6-((2-(3,6-diazabicyclo[3.1.1]heptan-3-yl)-7-(thiazol-2-yl)benzo[d]oxazol-4-yl)oxy)pyridin-3-yl)methanol] | A (a % remaining rate of 75% or more) | < 100 |
| OCc1cnc(Oc2ccc(-c3nccs3)c3oc(N4CC5CC(C4)N5)nc23)c(C(F)(F)F)c1 [Example 342, (6-((2-(3,6-diazabicyclo[3.1.1]heptan-3-yl)-7-(thiazol-2-yl)benzo[d]oxazol-4-yl)oxy)-5-(trifluoromethyl)pyridin-3-yl) methanol] | B (60% or more and less than 75%) | < 100 |
| FC(F)(F)Oc1ccc(Oc2ccc(-c3nccs3)c3oc(N4CC5CC(C4)N5)nc23)nc1 [Example 343] | B (60% or more and less than 75%) | < 100 |
| C[S+]([O-])c1ccc(-c2nccs2)c2oc(N3CC4CC(C3)N4)nc12 (stereo not drawn) [Example 346, 2-(3,6-diazabicyclo[3.1.1]heptan-3-yl)-4-(methylsulfinyl)-7-(thiazol-2-yl)benzo [d]oxazole] | A (a % remaining rate of 75% or more) | < 100 |
| CS(=O)(=O)c1ccc(-c2nccs2)c2oc(N3CC4CC(C3)N4)nc12 [Example 347, 2-(3,6-diazabicyclo[3.1.1]heptan-3-yl)-4-(methylsulfonyl)-7-(thiazol-2-yl)benzo [d]oxazole] | A (a % remaining rate of 75% or more) | < 100 |
| OCCSc1ccc(-c2nccs2)c2oc(N3CC4CC(C3)N4)nc12 [Example 348, 2-((2-(3,6-diazabicyclo[3.1.1]heptan-3-yl)-7-(thiazol-2-yl)benzo [d]oxazol-4-yl)thio) ethan-1-ol] | B (60% or more and less than 75%) | < 100 |
| [O-][S+](CCO)c1ccc(-c2nccs2)c2oc(N3CC4CC(C3)N4)nc12 (stereo not drawn) [Example 349, 2-((2-(3,6-diazabicyclo[3.1.1]heptan-3-yl)-7-(thiazol-2-yl)benzo [d]oxazol-4-yl)sulfinyl)ethan-1-ol] | A (a % remaining rate of 75% or more) | < 100 |
| O=S(=O)(CCO)c1ccc(-c2nccs2)c2oc(N3CC4CC(C3)N4)nc12 [Example 350, 2-((2-(3,6-diazabicyclo[3.1.1]heptan-3-yl)-7-(thiazol-2-yl)benzo [d]oxazol-4-yl)sulfonyl)ethan-1-ol] | A (a % remaining rate of 75% or more) | < 100 |
| CS(=O)(=O)c1ccc(Oc2ccc(-c3nccs3)c3oc(N4CC5CC(C4)N5)nc23)nc1 [Example 352, 2-(3,6-diaza-bicyclo[3.1.1]heptan-3-yl)-4-((5-(methylsulfonyl)pyridin-2-yl)oxy)-7-(thiazol-2-yl)benzo [d]oxazole] | A (a % remaining rate of 75% or more) | < 100 |
| COCCNC(=O)c1ccc(-c2nccs2)c2oc(N3CC4CC(C3)N4)nc12 [Example 353, 2-(3,6-diazabicyclo [3.1.1]heptan-3-yl)-N-(2-methoxyethyl)-7-(thiazol-2-yl) benzo[d] oxazole-4-carboxamide] | A (a % remaining rate of 75% or more) | < 100 |
| NC(=O)c1ccc(-c2nccs2)c2oc(N3CC4CC(C3)N4)nc12 [Example 354, 2-(3,6-diazabicyclo [3.1.1]heptan-3-yl)-7-(thiazol-2-yl)benzo[d] oxazole-4-carboxamide] | A (a % remaining rate of 75% or more) | < 100 |
| O=C(NCCO)c1ccc(-c2nccs2)c2oc(N3CC4CC(C3)N4)nc12 [Example 355, 2-(3,6-diazabicyclo [3.1.1]heptan-3-yl)-N-(2-hydroxyethyl)-7-(thiazol-2-yl) benzo[d] oxazole-4-carboxamide] | A (a % remaining rate of 75% or more) | < 100 |
| CN(CCO)C(=O)c1ccc(-c2nccs2)c2oc(N3CC4CC(C3)N4)nc12 [Example 356, 2-(3,6-diazabicyclo [3.1.1]heptan-3-yl)-N-(2-hydroxyethyl)-N-methyl-7-(thiazol-2-yl)benzo[d] oxazole-4-carboxamide] | A (a % remaining rate of 75% or more) | 100 to 1000 |
| O=C(NC1CC1)c1ccc(-c2nccs2)c2oc(N3CC4CC(C3)N4)nc12 [Example 357, 2-(3,6-diazabicyclo [3.1.1]heptan-3-yl)-N-cyclopropyl-7-(thiazol-2-yl) benzo[d]oxazole-4-carboxamide] | A (a % remaining rate of 75% or more) | < 100 |
| CCNC(=O)c1ccc(-c2nccs2)c2oc(N3CC4CC(C3)N4)nc12 [Example 358, 2-(3,6-diazabicyclo [3.1.1]heptan-3-yl)-N-ethyl-7-(thiazol-2-yl) benzo[d]oxazole-4-carboxamide] | A (a % remaining rate of 75% or more) | < 100 |
| O=C(c1ccc(-c2nccs2)c2oc(N3CC4CC(C3)N4)nc12)N1CCOCC1 [Example 359, (2-(3,6-diazabicyclo [3.1.1]heptan-3-yl)-7-(thiazol-2-yl)benzo[d]oxazol-4-yl) (morpholino) methanone] | A (a % remaining rate of 75% or more) | 100 to 1000 |
| O=C(c1ccc(-c2nccs2)c2oc(N3CC4CC(C3)N4)nc12)N1CCCC1 [Example 360, (2-(3,6-diazabicyclo [3.1.1]heptan-3-yl)-7-(thiazol-2-yl)benzo[d]oxazole-4-yl)(pyrrolidin-1-yl)methanone] | A (a % remaining rate of 75% or more) | 100 to 1000 |
| CC(C)(O)C(F)(F)Oc1ccc(-c2ccc(Cl)cn2)c2oc(N3CC4CC(C3)N4)nc12 [Example 363, 1-((2-(3,6-diazabicyclo [3.1.1]heptan-3-yl)-7-(5-chloropyridin-2-yl)benzo[d]oxazol-4-yl)oxy)-1,1-difluoro-2-methyl-propan-2-ol] | A (a % remaining rate of 75% or more) | < 100 |
| c1csc(-c2ccc(N3CCOCC3)c3nc(N4CC5CC(C4)N5)oc23)n1 [Example 369, 2-(3,6-diazabicyclo[3.1.1]heptan-3-yl)-4-morpholino-7-(thiazol-2-yl) benzo[d]oxazole] | B (60% or more and less than 75%) | < 100 |
| OCC(O)C(F)(F)Oc1ccc(-c2nccs2)c2oc(N3CC4CC(C3)N4)nc12 (stereo not drawn) [Example 370, 3-((2-(3,6-diazabicyclo[3.1.1]heptan-3-yl)-7-(thiazol-2-yl)benzo[d]oxazol-4-yl)oxy)-3,3-difluoropropane-1,2-diol] | A (a % remaining rate of 75% or more) | < 100 |
| OCC(F)(F)Oc1ccc(-c2nccs2)c2oc(N3CC4CC(C3)N4O)nc12 [Example 374, 3-(4-(1,1-difluoro-2-hydroxyethoxy)-7-(thiazol-2-yl)benzo [d]oxazol-2-yl)-3,6-diazabicyclo[3.1.1] heptan-6-ol] | B (60% or more and less than 75%) | < 100 |
| OCc1cccnc1Oc1ccc(-c2nccs2)c2oc(N3CC4CC(C3)N4)nc12 [Example 376, (2-((2-(3,6-diazabicyclo[3.1.1]heptan-3-yl)-7-(thiazol-2-yl)benzo[d]oxazol-4-yl)oxy)pyridin-3-yl)methanol] | A (a % remaining rate of 75% or more) | < 100 |
